Source: the Kinase Knowledgebase extract (Sharma et al. 2016)

What follows are compounds tested against ROCK2 (human) (UniProt O75116) (assay: Inhibition of ROCK2 Kinase Activity).
ROCK2 (human), sequence (O75116 whole entry, looked up): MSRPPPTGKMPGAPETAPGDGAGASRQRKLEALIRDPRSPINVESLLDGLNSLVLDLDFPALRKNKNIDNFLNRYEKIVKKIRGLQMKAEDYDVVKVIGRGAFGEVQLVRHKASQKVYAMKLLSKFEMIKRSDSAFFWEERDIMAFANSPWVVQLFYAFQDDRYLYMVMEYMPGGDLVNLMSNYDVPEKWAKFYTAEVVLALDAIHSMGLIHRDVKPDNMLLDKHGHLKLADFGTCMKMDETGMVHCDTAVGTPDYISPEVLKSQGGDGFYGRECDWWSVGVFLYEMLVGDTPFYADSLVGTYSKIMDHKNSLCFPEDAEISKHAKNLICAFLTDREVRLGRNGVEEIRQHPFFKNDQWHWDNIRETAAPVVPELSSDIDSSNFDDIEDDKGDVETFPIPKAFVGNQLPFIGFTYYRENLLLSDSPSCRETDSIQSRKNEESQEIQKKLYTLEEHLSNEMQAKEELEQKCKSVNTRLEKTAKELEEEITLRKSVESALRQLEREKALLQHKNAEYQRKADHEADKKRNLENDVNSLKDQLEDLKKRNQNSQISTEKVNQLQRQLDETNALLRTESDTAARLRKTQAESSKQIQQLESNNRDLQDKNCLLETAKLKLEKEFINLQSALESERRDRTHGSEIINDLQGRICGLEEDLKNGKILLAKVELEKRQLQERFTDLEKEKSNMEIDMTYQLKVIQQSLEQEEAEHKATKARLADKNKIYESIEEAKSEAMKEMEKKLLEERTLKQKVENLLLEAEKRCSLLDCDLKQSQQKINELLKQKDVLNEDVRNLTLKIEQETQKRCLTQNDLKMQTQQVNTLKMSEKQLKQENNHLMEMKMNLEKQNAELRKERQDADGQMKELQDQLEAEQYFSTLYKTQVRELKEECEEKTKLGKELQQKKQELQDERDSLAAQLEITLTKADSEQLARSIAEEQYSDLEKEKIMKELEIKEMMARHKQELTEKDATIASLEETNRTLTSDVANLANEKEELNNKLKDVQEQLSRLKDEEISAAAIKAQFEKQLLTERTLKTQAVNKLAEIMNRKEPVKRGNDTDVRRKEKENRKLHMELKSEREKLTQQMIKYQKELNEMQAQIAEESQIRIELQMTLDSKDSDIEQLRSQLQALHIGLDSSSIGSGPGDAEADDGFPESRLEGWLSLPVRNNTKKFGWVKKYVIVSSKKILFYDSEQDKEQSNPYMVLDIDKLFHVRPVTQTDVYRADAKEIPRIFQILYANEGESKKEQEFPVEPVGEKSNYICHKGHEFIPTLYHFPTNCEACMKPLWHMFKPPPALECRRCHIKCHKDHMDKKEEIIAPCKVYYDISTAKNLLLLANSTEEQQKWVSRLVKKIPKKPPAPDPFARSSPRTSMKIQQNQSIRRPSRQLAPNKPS

`CC(=O)c1ccc2c(c1)CC(c1nc3ccc(-c4ccnc(N)n4)cc3[nH]1)CO2` (stereo unspecified) and `NC(=O)c1ccc2c(c1)CC(c1nc3ccc(-c4ccnc(N)n4)cc3[nH]1)CO2` (stereo unspecified) are within 1.5-fold of each other in IC50: 2.7 nM for the first, 4 nM for the second.

`Nc1nccc(-c2ccc3nc(C4COc5ccc(CC(=O)NC6CC6)cc5C4)[nH]c3c2)n1` (stereo unspecified) and `Nc1nccc(-c2ccc3nc(C4COc5ccc(C(=O)NC6CC6)cc5C4)[nH]c3c2)n1` (stereo unspecified) are within 1.5-fold of each other in IC50: 0.8 nM for the first, 1.2 nM for the second.

Compared with `CN(C)S(=O)(=O)c1ccc2c(c1)CC(c1nc3ccc(-c4ccnc(N)n4)cc3[nH]1)CO2` (stereo unspecified), `Nc1nccc(-c2ccc3nc(C4COc5ccc(Br)cc5C4)[nH]c3c2)n1` (stereo unspecified) is 4-fold lower in IC50: 40 nM for the first, 10 nM for the second. The second is the more potent here.

First: N#Cc1ccc2c(c1)CC(c1nc3ccc(-c4ccnc(N)n4)cc3[nH]1)CO2 (stereo unspecified)
Second: Nc1nccc(-c2ccc3nc(C4COc5ccc(F)cc5C4)[nH]c3c2)n1 (stereo unspecified)
The IC50 of the first is 9.1-fold higher: 43 nM for the first, 4.7 nM for the second.

Compared with `Nc1nccc(-c2ccc3nc(C4COc5ccc(C(=O)NCCN6CCOCC6)cc5C4)[nH]c3c2)n1` (stereo unspecified), `Nc1nccc(-c2ccc3nc(C4COc5ccc(C(=O)NCc6ccccc6)cc5C4)[nH]c3c2)n1` (stereo unspecified) is lower in IC50: 1.2 nM for the first, less than 1 nM for the second.

For `CCCOc1ccc2c(c1)CC(c1nc3ccc(-c4ccnc(N)n4)cc3[nH]1)CO2` (stereo unspecified), the IC50 was 316 nM.
